{"source": "patent US10154970B2", "about": "“Methods for immunomodulation of cancer and infectious disease therapy” (The Regents of the University of California, priority 2014, dated 2018)", "key": {"IFN-γ [1]": {"system": "IFN-γ", "experiment": "Experiment 5: serum IFN-γ cytokine analysis", "format": "in vivo, human MUC1.Tg C57BL/6 mice", "conditions": "TRIP 100 mg/kg or letrozole 0.8 mg/kg daily oral 14 days", "description": "FIG. 13. Effects of TRIP on serum IFN-γ compared to estradiol and letrozole. Serum IFN-γ from untreated control, TRIP (100 mg/kg), estradiol (E2; 25 μg/kg), and letrozole (0.8 mg/kg) groups were analyzed following daily treatment for 14 days (n=8 all groups). **p<0.01, ***p<0.001.\nTRIP and letrozole were prepared in DMSO and peanut oil as described above in Experiment 2 and administered daily for 14 days by oral gavage (100 μL). Estradiol was dissolved in 100% ethanol, diluted in PBS to achieve the desired concentration, and then administered daily for 14 days by s.c. injection at rotating sites using a 25-gauge needle. In Week 19, the study was terminated, 24 hours after the last treatments, and serum and spleens were collected for surface marker and Treg analyses."}, "[2]": {"system": "T-cell surface markers (CD4, CD8, PD-1, CD28)", "experiment": "Experiment 5: T-cell surface markers of spleen lymphocytes by flow cytometry", "format": "in vivo, human MUC1.Tg C57BL/6 mice", "description": "FIG. 11. Lymphocyte phenotypes following different hormonal treatments. (A) CD3+CD4+; (B) CD3+CD8+; (C) CD3+CD28+; (D) CD8+CD28+; (E) CD3+PD-1+; and (F) CD8+PD-1+; T cell surface markers were stained with indicated antibodies after […] of TRIP (100 mg/kg), estradiol (E2; 25 μg/kg), and letrozole (0.8 mg/kg) treatments (n=8 all groups).\n(§1) A total of 32 female human MUC1.Tg C57BL/6 mice, starting at approximately six weeks of age, were treated with urethane as described (Wurz G T. et al., J. Transl. Med., 11:64 (2013)). Two weeks following the final dose of urethane (Week 17), the mice were randomized into four treatment groups of approximately equal average weight (n=8, all groups): Control (no treatment); TRIP (i.e., ospemifene) 100 mg/kg; estradiol 25 μg/kg; and letrozole 0.8 mg/kg. TRIP and letrozole were prepared in DMSO and peanut oil as described above in Experiment 2 and administered daily for 14 days by oral gavage (100 μL). Estradiol was dissolved in 100% ethanol, diluted in PBS to achieve the desired concentration, and then administered daily for 14 days by s.c. injection at rotating sites using a 25-gauge needle. In Week 19, the study was terminated, 24 hours after the last treatments, and serum and spleens were collected for surface marker and Treg analyses.\n(§2) After two weeks of treatment, lymphocytes were isolated from spleen. T-cell surface markers (CD4, CD8, PD-1, CD28) and regulatory T cells (Tregs) were analyzed by flow cytometry."}, "[3]": {"system": "regulatory T cells (Tregs)", "experiment": "Experiment 5: regulatory T cells (FoxP3+/CD4+) by flow cytometry", "format": "in vivo, human MUC1.Tg C57BL/6 mice", "conditions": "TRIP 100 mg/kg or letrozole 0.8 mg/kg daily oral 14 days", "description": "as §1, §2"}, "IL-2": {"system": "IL-2", "experiment": "IL-2 mRNA expression in Jurkat cells by qRT-PCR, normalized with GAPDH", "format": "cell-based, human", "description": "(§3) FIG. 1. Interferon gamma (IFN-γ) and interleukin (IL)-2 expression in human Jurkat cells following exposure to TRIP in vitro. Jurkat cells (2×10^6) were treated with different concentrations of TRIP as indicated for 24 hours. (A) IFN-γ and (B) IL-2 mRNA expression levels were detected by quantitative real-time polymerase chain reaction (qRT-PCR) and normalized with the expression of GAPDH. *p<0.05, **p<0.01, ***p<0.001.\n(§4) FIG. 3. Effects of TRIP alone and in combination with trifluoperazine (TFP) or LY294002 (LY) on IFN-γ and IL-2 in human Jurkat cells in vitro. Jurkat cells (2×10^6) were pretreated with different concentrations of (A, B) TFP (0, 0.1, 1.0, 5.0, and 10.0 μM) and (C, D) LY294002 (0, 1, 5, 10, and 25 μM) for 1 hour, then incubated with medium containing 2.5 μM of TRIP for 24 hours. (A, C) IFN-γ and (B, D) IL-2 mRNA expression levels were detected by qRT-PCR and normalized with the expression of GAPDH. *p<0.05, **p<0.01, ***p<0.001.\n(§5) FIG. 4. Effects of calmodulin, PI3K and MAPK inhibition on TRIP-induced expression of IFN-γ and IL-2 in human Jurkat cells in vitro. Jurkat cells (2×10^6) were pretreated with PD98059 (50 μM), TFP (10 μM) and LY294002 (25 μM) for 1 hour, then incubated with medium containing 2.5 μM of TRIP for 24 hours. (A) IFN-γ and (B) IL-2 mRNA expression levels were detected by qRT-PCR and normalized with the expression of GAPDH. **p<0.01, ***p<0.001, ****p<0.0001.\n(§6) The potential immune regulating effects of TRIP and the possible mechanism(s) involved were determined with in vitro experiments examining the expression of T cell activating cytokines in human acute T cell leukemia Jurkat cells. The expression of IFN-γ and IL-2 RNA following exposure to increasing concentrations of TRIP (i.e., ospemifene) were first examined, followed by the effects of combining tamoxifen with TRIP on the expression of these cytokines. Different inhibitors of key T cell activation pathways—trifluoperazine (TFP), an inhibitor of calmodulin, LY294002, an inhibitor of PI3K, and PD98059, a MAPK inhibitor—in combination with TRIP were assessed for their effects on TRIP-induced expression of IFN-γ and IL-2 in Jurkat cells.\n(§7) Jurkat cells (2.0×10^6) were treated with different concentrations of TRIP as indicated on the x-axis for 24 hours. (A) IFN-γ and (B) IL-2 mRNA expression levels were detected by quantitative real-time polymerase chain reaction (qRT-PCR) and normalized with the expression of GAPDH. *p<0.05, **p<0.01, ***p<0.001.\n(§8) T cell activation requires multiple signals including PI3K, MAPK and calcium signaling pathways, and in order to identify the potential mechanism through which TRIP affects immune activation, Jurkat cells (2.0×10^6) were pretreated with different concentrations of TFP (0, 0.1, 1.0, 5.0 and 10.0 μM) (A, B) or LY294002 (0, 1, 5, 10 and 25 μM) (C, D) for one hour, then incubated with medium containing 2.5 μM TRIP for 24 hours. IFN-γ and IL-2 expression levels were detected by qRT-PCR and normalized with the expression of GAPDH. *p<0.05, **p<0.01, ***p<0.001.\n(§9) Jurkat cells (2×10^6) were pretreated with PD98059 (50 μM), TFP (10 μM) or LY294002 (25 μM) for one hour, then incubated with medium containing 2.5 μM TRIP for 24 hours. (A) IFN-γ and (B) IL-2 mRNA expression levels were detected by qRT-PCR and normalized with expression of GAPDH. **p<0.01, ***p<0.001, ****p<0.0001.\nThe effects on T cell activation of different functional group substitutions on the TRIP chemical structure (Formula Ia) were examined by measuring the expression of IFN-γ and IL-2 RNA in human acute T cell leukemia Jurkat cells in vitro.\nA strong increase is defined as a ≥50% increase compared to the control. A moderate increase is defined as a 25-49% increase compared to the control. A weak increase is defined as a 0-24% increase compared to the control. No effect is when there was no increase compared to the control."}, "IFN-γ [4]": {"system": "IFN-γ", "experiment": "IFN-γ mRNA expression in Jurkat cells by qRT-PCR, normalized with GAPDH", "format": "cell-based, human", "description": "as §3\nFIG. 2. Effect of tamoxifen on TRIP-induced expression of IFN-γ in vitro. Jurkat cells (2×10^6) were treated with TRIP (2.5 μM) and/or tamoxifen (2.5 μM) for 24 hours. The expression levels of IFN-γ were analyzed by qRT-PCR and normalized with GAPDH. **p<0.01, ***p<0.005.\nas §4, §5, §6, §7\nThe expression levels of IFN-γ were analyzed by qRT-PCR and normalized with GAPDH. **p<0.01, ***p<0.001.\nas §8, §9\nThe effects on T cell activation of different functional group substitutions on the TRIP chemical structure (Formula Ia) were examined by measuring the expression of IFN-γ and IL-2 RNA in human acute T cell leukemia Jurkat cells in vitro. […]"}, "[5]": {"conditions": "mRNA in Jurkat cells in vitro, relative to control sample without TRIP compound"}, "[6]": {"conditions": "Jurkat cells pretreated 1 hour with PD98059 50 μM, TFP 10 μM or LY294002 25 μM, then 2.5 μM TRIP 24 hours (FIG. 4)"}, "[7]": {"conditions": "Jurkat cells pretreated 1 hour with TFP 0.1-10.0 μM or LY294002 1-25 μM, then 2.5 μM TRIP 24 hours (FIG. 3)"}}, "data": [{"smiles": "N#Cc1ccc(C(c2ccc(C#N)cc2)n2cncn2)cc1", "note": "[letrozole, reference compound]", "values": [{"measurement": "serum IFN-γ concentrations compared to estradiol", "setting": "IFN-γ [1]", "result": "significantly increased"}, {"measurement": "expression of surface markers, including CD8 and CD28, vs control", "setting": "[2]; TRIP 100 mg/kg or letrozole 0.8 mg/kg daily oral 14 days", "result": "no difference"}, {"measurement": "CD4+ T cell population", "setting": "[2]; letrozole 0.8 mg/kg daily oral 14 days", "result": "lower"}, {"measurement": "Tregs (FoxP3+/CD4+) compared to estradiol treatment", "setting": "[3]", "result": "significantly inhibited"}]}, {"smiles": "OCCOCCOc1ccc(/C(=C(/CCCl)c2ccccc2)c2ccccc2)cc1", "note": "[Z-2-{2-[4-(4-chloro-1,2-diphenyl-but-1-enyl)-phenoxy]-ethoxy}-ethanol]", "values": [{"measurement": "IL-2 Expression", "setting": "IL-2; [5]", "result": "+++ (strong increase)"}, {"measurement": "IFN-γ Expression", "setting": "IFN-γ [4]; [5]", "result": "+++ (strong increase)"}]}, {"smiles": "CC/C(=C(\\c1ccccc1)c1ccc(OCCN(C)C)cc1)c1ccccc1", "note": "[tamoxifen, reference compound]", "values": [{"measurement": "expression of IFN-γ compared to control", "setting": "IFN-γ [4]; Jurkat cells, single agent 2.5 μM, 24 hours (FIG. 2)", "result": "no apparent effect"}, {"measurement": "effect on the T cell activating ability of TRIP (IFN-γ expression)", "setting": "IFN-γ [4]; Jurkat cells, tamoxifen 2.5 μM with TRIP 2.5 μM, 24 hours", "result": "does not affect"}]}, {"smiles": "COc1cccc(-c2cc(=O)c3ccccc3o2)c1N", "note": "[PD98059, reference compound]", "values": [{"measurement": "TRIP-induced expression of IL-2", "setting": "IL-2; [6]", "result": "did not appear to affect"}, {"measurement": "TRIP-induced expression of IFN-γ", "setting": "IFN-γ [4]; [6]", "result": "did not appear to affect"}]}, {"smiles": "CN1CCN(CCCN2c3ccccc3Sc3ccc(C(F)(F)F)cc32)CC1", "note": "[TFP, trifluoperazine, reference compound]", "values": [{"measurement": "TRIP-induced expression of IL-2", "setting": "IL-2; [6]", "result": "significantly decreased"}, {"measurement": "TRIP-induced expression of IL-2", "setting": "IL-2; [7]", "result": "significantly decreased"}, {"measurement": "TRIP-induced expression of IFN-γ", "setting": "IFN-γ [4]; [6]", "result": "significantly decreased"}, {"measurement": "TRIP-induced expression of IFN-γ", "setting": "IFN-γ [4]; [7]", "result": "significantly decreased"}]}]}
